In US10369134B2, “Nonracemic mixtures and uses thereof” (Sunovion Pharmaceuticals Inc., priority 2017, dated 2019):

System: freely moving rats
Test: Sleep study of (R)-amisulpride (EEG/EMG sleep architecture)
Format: in vivo, rat
Method: Rapid eye movement (REM) sleep time, non-rapid eye movement (NREM) sleep time, WAKE time were measured using electroencephalogram (EEG) and electromyogram (EMG) recordings. […] EEG and EMG recordings were made for 6 hr starting at the beginning of the light phase. Vehicle (0.05 N HCl/0.5% Methyl Cellulose 400 solution) or dosing suspensions were orally administered 10 min before the beginning of light phase. The volume of administration was 5 mL/kg. The order of drug treatment varied pseudo-randomly and at least 1 week was allowed between the experiments for individual animals.
A radio transmitter (TL11M2-F40-EET; Data Science International, New Brighton, Minn., USA) was implanted subcutaneously in the back of anesthetized animals, and a pair of electrode wires was stereotaxically implanted into the skull in the following locations: one in the frontoparietal (2 mm anterior to the bregma and 2 mm left to the midline), and the other in parietal (5 mm posterior to the bregma and 2 mm right to the midline) areas. The EEG electrodes were fixed using dental cement. Electromyograms (EMG) were recorded from the dorsal neck muscle. The animals, then, were allowed at least 1 week recovery in individual plastic cages before EEG/EMG recording. EEG/EMG were recorded in the home cages in a soundproof box using Dataquest A.R.T. software (Data Science International, New Brighton, Minn., USA) at a sampling rate of 500 Hz.
Sleep stage analysis was conducted off-line using Sleepsign software (KISSEI COMTEC CO., LTD, Nagano, Japan). Electrographic activity of 10-sec epochs were analyzed and each epoch was automatically assigned as WAKE, REM, and NREM based on the waveforms of EEG and EMG according to the following definitions: WAKE was defined as a condition in which EMG exceeded the individual threshold, NREM was defined as a condition in which the power of delta waves (0.5-4 Hz) exceeded the individual threshold with no EMG activity, and REM was defined as a condition in which the power of theta waves (4-8 Hz) exceeded 40% of the total power of frequencies between 0.5 and 80 Hz in the presence of no EMG activity. The duration of each REM, WAKE, and NREM periods were calculated by summing time spent in each condition during sleep every 2 hours.
All data are expressed as means±S.E.M. REM sleep, NREM sleep time, and WAKE time each of sequential 2-hr periods were compared statistically using a repeated measures two-way ANOVA, followed by post-hoc Dunnett tests.

Compound: CCN1CCC[C@@H]1CNC(=O)c1cc(S(=O)(=O)CC)c(N)cc1OC [(R)-amisulpride, R-4-Amino-N-[(1-ethyl-2-pyrrolidinyl)methyl]-5-(ethylsulfonyl)-2-methoxybenzamide]
- REM sleep duration (rat, 100 mg/kg p.o., 0-2 hr and 2-4 hr periods after administration): significant reductions
- NREM sleep time (rat, 10, 30, 100 mg/kg p.o.): no observed effect
- WAKE time (rat, 10, 30, 100 mg/kg p.o.): no observed effect
- REM sleep duration (rat, 10, 30, 100 mg/kg p.o., light phase): reduced REM sleep duration in dose-dependent manner
